Assays:
PXR [1] = molecular target: T1, PXR (Homo sapiens, UniProt O75469); assay: Western blot of endogenous 3xFLAG-PXR protein in SNU—C4 3xFLAG-PXR KI cells; assay type: cell-based; parameters: To assess SJPYT-195 activity against endogenous PXR, CRISPR-Cas9 was used; endogenous in cells
T1 sequence (O75469 1-434): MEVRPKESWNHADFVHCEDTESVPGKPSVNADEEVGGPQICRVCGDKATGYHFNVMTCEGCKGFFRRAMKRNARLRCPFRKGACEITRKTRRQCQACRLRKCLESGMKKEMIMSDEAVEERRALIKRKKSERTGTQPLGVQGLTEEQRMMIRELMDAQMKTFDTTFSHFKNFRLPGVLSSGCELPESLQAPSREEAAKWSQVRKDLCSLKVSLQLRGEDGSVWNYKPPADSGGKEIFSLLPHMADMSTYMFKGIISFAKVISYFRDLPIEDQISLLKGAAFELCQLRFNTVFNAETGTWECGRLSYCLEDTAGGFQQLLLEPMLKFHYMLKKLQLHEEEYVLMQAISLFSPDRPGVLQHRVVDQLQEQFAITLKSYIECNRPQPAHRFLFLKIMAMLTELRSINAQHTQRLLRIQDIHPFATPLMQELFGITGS
Procedure: The following day, DMSO or compounds were added to result in 0.5% DMSO and the indicated compound concentrations, and cells were incubated for the indicated time points. Cells were lysed and subjected to western blotting as above using antibodies against FLAG (Sigma-Aldrich, cat. #F3165, 1:2,000 dilution), GSPT1 (Abcam, cat. #ab126090, 1:4,000 dilution), and R-Actin (Cell Signaling Technology, cat. #4967, 1:2,000 dilution).

PXR [2] = molecular target: T1, PXR; assay: cell-based hPXR antagonistic assay
[3] = tested on: SNU—C4 3xFLAG-PXR KI cell lines stably expressing HA-tagged GSPT1^G575N; assay: Cytotoxicity assay in cells overexpressing degradation-resistant GSPT1 mutant; assay type: cell-based, human; conditions: FIG. 7B-C
Procedure: Complete information for all plasmids is included in Table 1 below. […] Lentiviruses for pCDH-GSPT1 or pCDH-GSPT1^G575N were generated in 293T cells using psPAX2 and pMD2.G packaging vectors. The packaging vectors were gifts from Dr. Didier Trono (Addgene plasmid #12259 and 12260).
(§1) The indicated cells (2.5×10^3/well in 40 μL RPMI with 10% FBS) were plated in the 384-well plates, resulting in 0.5% DMSO and the indicated concentrations of chemicals. After 72 h compound treatment, the CellTiter-Glo Luminescent Cell Viability Assay (Promega) and an EnVision microplate reader were used to assess cytotoxicity. Wells containing DMSO alone or 10 μM staurosporine served as negative and positive controls, respectively. The percent cell viability for each well was calculated using equation 1: […]

HiBiT-FKBP12^F36V-PXR = molecular target: T2, HiBiT-FKBP12^F36V-PXR (Homo sapiens, UniProt O75469+P62942, F37V); assay: HiBiT assay for degradation of overexpressed protein in HepG2 cells; assay type: cell-based; conditions: HepG2, HiBiT-FKBP12^F36V-PXR, 24 h, FIG. 4A
T2 construct: expressed in transfected cells; host or cells: HepG2 cells (transient, Lipofectamine 3000)
T2 sequence (P62942+O75469 fused P62942:F37V): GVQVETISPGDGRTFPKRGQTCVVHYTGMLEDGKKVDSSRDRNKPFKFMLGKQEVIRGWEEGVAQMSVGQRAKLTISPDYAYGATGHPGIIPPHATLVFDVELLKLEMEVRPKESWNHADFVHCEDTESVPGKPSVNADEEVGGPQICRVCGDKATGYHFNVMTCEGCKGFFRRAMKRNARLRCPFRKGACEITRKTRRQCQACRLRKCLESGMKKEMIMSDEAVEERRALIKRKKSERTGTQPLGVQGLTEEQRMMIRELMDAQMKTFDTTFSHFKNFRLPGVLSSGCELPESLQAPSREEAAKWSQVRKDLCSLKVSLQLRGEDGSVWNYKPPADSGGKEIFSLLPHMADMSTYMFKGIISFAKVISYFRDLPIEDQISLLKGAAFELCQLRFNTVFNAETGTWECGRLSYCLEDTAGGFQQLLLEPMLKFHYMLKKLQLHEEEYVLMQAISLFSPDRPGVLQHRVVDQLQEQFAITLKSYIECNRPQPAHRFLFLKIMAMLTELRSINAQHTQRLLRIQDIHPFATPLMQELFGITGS
T2 sequence (Q96SW2 whole entry partner): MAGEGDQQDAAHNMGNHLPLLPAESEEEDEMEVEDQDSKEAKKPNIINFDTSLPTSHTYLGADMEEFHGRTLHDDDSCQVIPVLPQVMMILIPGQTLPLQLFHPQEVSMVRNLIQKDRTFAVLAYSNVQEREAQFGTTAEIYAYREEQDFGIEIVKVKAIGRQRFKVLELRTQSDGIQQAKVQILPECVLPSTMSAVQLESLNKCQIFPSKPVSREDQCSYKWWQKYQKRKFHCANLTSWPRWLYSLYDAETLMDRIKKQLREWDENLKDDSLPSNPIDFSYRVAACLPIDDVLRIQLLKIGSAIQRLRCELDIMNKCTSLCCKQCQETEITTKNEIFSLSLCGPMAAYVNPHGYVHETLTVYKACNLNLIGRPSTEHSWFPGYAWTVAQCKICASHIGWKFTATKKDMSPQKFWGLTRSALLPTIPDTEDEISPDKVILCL
Procedure: HepG2 cells (5×10^6 cells/dish) were plated in tissue culture-treated 10 cm dishes in 10 mL EMEM with 10% FBS. The next day, cells were transfected with 5 μg pcDNA3-HiBiT-FKBP^F36V-2xHA-PXR and either 5 μg pcDNA3 vector or 5 μg pcDNA3-HA-CRBN using Lipofectamine 3000 (Thermo Fisher Scientific). After 24 h, cells were trypsinized, resuspended in assay media, and plated in white tissue culture-treated 384-well plates (1.5×10^4 cells/well in 25 μL medium). […] The plates were incubated for 24 h, and the Nano-Glo HiBiT Lytic Detection System (Promega) and an EnVision microplate reader were used to measure HiBiT signal. Results are reported as fold change relative to DMSO control cells.
To establish a method for discovery of PXR degraders in the absence of a known PXR-degrading control, the degradation tag (dTAG) system was used. With this method, a protein of interest (PXR) is fused to a cytosolic prolyl isomerase, FKBP12, with Phe36 mutated to Val (FKBP12^F36V) (FIG. 2A). A PROTAC molecule, dTAG-13 (FIG. 2B), is then used to induce degradation of the fusion protein through recruitment of the CUL4-RBX1-DDB1-CRBN (CRL4^CRBN) E3 ubiquitin ligase, without affecting the cellular FKBP12 protein. An HA tag was added for western blot detection, and a HiBiT tag was fused to the N-terminus to allow high-throughput plate-based quantification of HiBiT-FKBP12^F36V-PXR protein levels (FIG. 2A). […] This was also observed when the HA tag was detected by western blot (FIG. 2D). The HiBiT detection was more sensitive to protein level changes than western blot, and, importantly, overexpression of CRBN was required to achieve dTAG-13-mediated degradation of the overexpressed HiBiT-FKBP12^F36V-PXR protein.

[4] = tested on: SNU—C4 3xFLAG-PXR KI cells; assay: Cytotoxicity assay (CellTiter-Glo, 72 h); assay type: cell-based, human; conditions: SNU—C4 3xFLAG-PXR KI cells
Procedure: as §1

[5] = Cytotoxicity assay (CellTiter-Glo, 72 h); assay type: cell-based, human; conditions: human, SNU-C4 3xFLAG-PXR KI cells; read-out: half maximal cytotoxic concentration (CC50)
Procedure: as §1

Compound: COc1ccc(OC)c(-n2nnc(C(=O)Nc3cc(Oc4cccc5c4C(=O)N(C4CCC(=O)NC4=O)C5=O)cc(C(C)(C)C)c3)c2C)c1 (centres unmarked) [Compound M4, N-(3-(tert-butyl)-5-((2-(2,6-dioxopiperidin-3-yl)-1,3-dioxoisoindolin-4-yl)oxy)phenyl)-1-(2,5-dimethoxyphenyl)-5-methyl-1H-1,2,3-triazole-4-carboxamide]
- reduction of PXR protein (PXR [1]; 5 μM, 12 h): ~50%
- maximum degradation efficacy (DNax) of endogenous PXR protein (PXR [1]; SNU—C4 3xFLAG-PXR KI cells, FIG. 4B): 85% ±1
- DC50 (PXR [1]; SNU—C4 3xFLAG-PXR KI cells, FIG. 4B, read-out: half maximal degradation concentration (DC50) of endogenous PXR protein): 0.31 ± 0.13 µM
- kinetics of PXR protein decrease (PXR [1]; time-course, FIG. 5A-B): quite slow
- PXR protein level (in words) (PXR [1]; western blot, SNU—C4 3xFLAG-PXR KI cells): reduced PXR to a greater extent than CC-885
- inhibition at 10 µM (PXR [2]; read-out: Antagonist (% inhibition at 10 μM)): 96%
- IC50 (PXR [2]; read-out: Antagonist (IC50/μM)): 0.94 ± 0.2 µM
- cytotoxicity in cells overexpressing GSPT1^G575N [3]: partially resistant
- HiBiT signal (screen of PXR ligand-CRBN ligand compounds) (HiBiT-FKBP12^F36V-PXR): reduced HiBiT signal
- fold difference in CC50 values (CC-885 vs SJPYT-195) [4]: 133 fold
- CC50 at 72 h [5]: 0.44 ± 0.08 µM
